Experimental findings from PubChem BioAssay (NCI) are described below.

Common to all, as to experiment: NCI anticancer screen, dose series, 48 h
For test [1], the system named is MALME-3M melanoma.
In test [2] the test system is CCRF-CEM leukemia.
Test [3] relates to OVCAR-5 ovarian.
In test [4] the test system is RXF 393 renal.
For test [5], the system named is IGROV1 ovarian.
The test system of test [6] is SK-MEL-28 melanoma.
The subject of test [7] is SK-MEL-2 melanoma.
Test [8] has as its system SR leukemia.
Test [9] has as its system ACHN renal.
For test [10], the system named is SNB-75 CNS.

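Each compound was tested at five concentrations against cells in 96-well plates for 48 hours. At the GI50, growth is halved. TGI marks complete inhibition of growth.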

Regarding `CN1CCN(Cc2ccc(NC(=O)c3cncc(C#Cc4cnc(N)c5ccc(F)cc45)c3)cc2C(F)(F)F)CC1`, the GI50 in [1] is 1.08 µM; in test [2], 0.865 µM; in test [3], 3.52 µM; in test [4], 0.826 µM; in [5], 0.677 µM; in test [6] it was 2.52 µM. The GI50 was 0.808 µM in test [7], 1.25 µM in test [8], 1.02 µM in test [9] and 1.3 µM in test [10]. The TGI in test [1] came to 3.93 µM; in [2], 16.4 µM; in test [3] it was 7.51 µM; in [4] it was 2.73 µM; in test [5], 4.08 µM; in test [6], 7.11 µM. The TGI in [7] was 2.39 µM; in test [8], 33.3 µM; in [9], 4.36 µM; in [10], 5.71 µM.

For `O=C(Oc1ccc(O)c2c(=O)n3c(cc12)[nH]c1ccccc13)c1ccccc1`, the GI50 is 3.71 µM in [2]; 28.4 µM in test [3]; 10.6 µM in [5]; 24.9 µM in test [6]; 21 µM in test [7]; 25.9 µM in test [8]. Moreover, the GI50 in test [9] is 7.55 µM; in [10], 28.3 µM. The TGI in test [2] is 20.7 µM; in test [3], 73.2 µM; in test [4], 0.505 µM; in test [5], 24.6 µM; in test [6], 76.4 µM; in test [7] it was above 100 µM. Besides, the TGI in test [8] is 82.2 µM; in [9], 23.6 µM; in test [10], above 100 µM.

For the compound `COc1cc2nc(-c3ccc(C(F)(F)F)cc3)cc(OCCCN3CCOCC3)c2cc1OC`, the GI50 in test [1] was 1.38 µM; in [2], 2.79 µM; in test [3] it was 1.92 µM; in test [4] it was 0.706 µM; in [5], 0.83 µM; in [6], 1.44 µM. Besides, the GI50 in [7] is 3.32 µM; in test [8] it was 0.242 µM; in [9], 2.01 µM; in test [10] it was 2.46 µM. The TGI in test [1] turned out to be 3.77 µM; in test [2], 19.3 µM; in [3], 18.8 µM; in test [4], 3.65 µM; in [5] it was 21.9 µM; in test [6], 3.27 µM. In addition, the TGI in test [7] was 13.1 µM; in test [8] it was 14.3 µM; in test [9], 18.2 µM; in test [10], 9.51 µM.

For the compound `COc1cc(-c2cc(=O)c3cc4c(cc3[nH]2)OCO4)cc(OC)c1OC`, the TGI in test [1] is above 100 µM; in test [2], above 100 µM; in test [4] it was 60.5 µM; in test [5], above 100 µM; in test [6] it was above 100 µM; in test [7], above 100 µM. Moreover, the TGI in [8], in test [9] and in test [10] was above 100 µM each time. The GI50 in test [4] is 22.1 µM.

Regarding `COC(=O)CCC/C=C\C[C@H]1C=CC(=O)/C1=C/C[C@@H](O)CCc1cccc(C(F)(F)F)c1`, the GI50 is 2.47 µM in test [1]; 1.09 µM in [2]; 3.79 µM in [3]; 2.08 µM in [4]; 3.71 µM in test [5]; 1.98 µM in [6]. Further, the GI50 in [7] is 3.19 µM; in test [8], 0.975 µM; in [9], 1.83 µM; in test [10], 5.46 µM. The TGI in test [1] came to 8.1 µM; in test [2], 12 µM; in [3], 12.7 µM; in [4], 3.79 µM; in test [5] it was 13.9 µM; in [6] it was 5.2 µM. The TGI is 11.5 µM in test [7], 5.53 µM in test [8], 3.54 µM in test [9] and 18.9 µM in test [10].

On to `CCCCNc1nc(NC(C)(C)C)nc(NC(C)(C)C)n1`, for which the GI50 was 49.4 µM in test [1]; 3.18 µM in test [2]; 15.2 µM in test [3]; 8.07 µM in test [4]; 16.3 µM in test [5]; 30 µM in test [6]. The GI50 in test [7] is 15.4 µM; in test [8], 2.8 µM; in [9] it was 6.41 µM; in test [10], 12.8 µM. Further, the TGI in test [1] is above 100 µM; in test [2] it was above 100 µM; in [3] it was above 100 µM; in test [4], 76.9 µM; in [5] it was above 100 µM; in [6] it was above 100 µM. Besides, the TGI in test [7] was above 100 µM; in [8], 12.9 µM; in test [9], above 100 µM; in [10] it was 68.7 µM.

`Clc1nc(Oc2ccccc2)nc(-c2cn(-c3ccccc3)c3ccccc23)n1`: the GI50 was 1.89 µM in test [1]; 3.99 µM in test [2]; 22.9 µM in test [3]; 3.8 µM in [4]; 2.45 µM in test [5]; 3.92 µM in test [6]. The GI50 in test [7] was 4.66 µM; in [8], 0.241 µM; in test [9] it was 8.16 µM; in test [10], 13.7 µM. Further, the TGI in test [1] turned out to be 4.82 µM; in test [2] it was 20.3 µM; in [3], 52.7 µM; in test [4], 10.7 µM; in test [5], 6.26 µM; in test [6], 12.1 µM. For the same compound, the TGI in test [7] amounted to 18.5 µM; in test [8], 0.849 µM; in [9] it was 21.1 µM; in test [10], 26.6 µM.
